Patent US20180305657A1, “Bioactive Fungi” (Agriculture Victoria Services PTY LTD, priority 2015, published 2018)
Where two headings read alike, the source gives them in different places.

How the values were obtained:
[1] = system: Tribolium castaneum
Procedure: A total of 20 chemical standards were evaluated for their insecticidal activity against the stored grain pest, Tribolium castaneum. These chemical standards represented compounds in the volatolome of Daldinia sp. or were structural analogues of these compounds (Table 5). […] The insect pest was inoculated on to one half of the Petri plate by placing 4 insects onto feed (wheat flour and yeast). A chemical standard was then aliquoted (5 microlitre) on to the other half of the Petri plate on filter paper. Plates were immediately sealed with Parafilm®, covered in aluminium foil (i.e. in the dark) and maintained at room temperature. The mortality of insects was monitored daily by assessing insect movement as an indicator of mortality. The mortality was calculated by comparing the number of dead insects to the total number in the plate, and expressed as percentage mortality (Tables 6). Data were analysed using ANOVA as performed in GenStat, version 14. The experiment was fully randomised with 5 replicates for each endophyte.

[2] = system: T. castaneum
Procedure: The bioassays were conducted in 1 litre Schott bottles. The insect pest was inoculated into the bioassay by placing 9-12 insects onto feed (wheat flour and yeast). The biocidal compounds were then aliquoted into the bioassay at volumes ranging from 20-200 microlitres, ensuring no direct contact with the insect. Bottles were immediately sealed with Parafilm® and maintained at room temperature. The mortality of insects was monitored daily for three days exposure, by assessing insect movement as an indicator of mortality. The mortality was calculated by comparing the number of dead insects to the total number in the bioassay, and expressed as percentage mortality. Data were analysed using ANOVA as performed in GenStat, version 14. The experiment was fully randomised with 4 replicates for each endophyte.

[3] = system: Pseudomonas syringae; test: Bactericidal bioassay, compounds alone or in synergy; type: cell-based; conditions: for Growth Scale: compound alone, 10 μL, 3 days, 2 equivalent growth to control, 1 less growth, 0 no growth; for activity against P. syringae: used alone (acetaldehyde, isovaleraldehyde: alone or in combination)
Description: A bactericidal bioassay was established to evaluate the effect of the most insecticidal candidate compounds against the plant pathogenic bacterium Pseudomonas syringae, when applied alone or in synergy with other compounds from the volatolome of Daldinia sp. The pathogen was inoculated on to one third of the Petri plate by streaking bacterial cells from an actively growing culture (overnight) on to nutrient agar (NA). A candidate compound was then aliquoted (10 microlitres—except Acetaldehyde: 20 microlitres due to high volatility) onto another third of the Petri plate on filter paper. […] An untreated control was included and consisted of no compounds.

[4] = system: Fusarium verticillioides; test: Fungicidal bioassay, compounds alone or in synergy; type: cell-based; conditions: for % Inhibition (v control): 4 days; for fungicidal activity against F. verticillioides: in isolation; for inhibition of growth of the pathogen: in isolation and in combination with any of the compounds tested
Description: A fungicidal bioassay was established to evaluate the effect of key compounds from the volatolome of Daldinia sp. against the plant pathogenic fungus, Fusarium verticillioides, when applied alone and in synergy with other compounds from the volatolome of Daldinia sp. The pathogen was inoculated on to one third of the Petri plate by placing an agar plug of actively growing hyphae onto PDA. Candidate compounds were then aliquoted (10 microlitres) on to another third of the Petri plate on filter paper. […] After 4 days the growth of the pathogen was determined by measuring the radius of the colony (on two alternate planes).

## C1=CCCCC=C1 [1,3 Cycloheptadiene, 1,3-cycloheptadiene]
[1]; 5 microlitre, Day 1
  % Mortality Day 1: 12.5%
[1]; 5 microlitre, Day 2
  % Mortality Day 2: 20.8%
[1]; 5 microlitre, Day 3
  % Mortality Day 3: 27.5%
[1]; 5 microlitre, Day 4
  % Mortality Day 4: 27.5%

## CC1=CCC=CC1 [1-Methyl-1,4-cyclohexadiene]
[1]; 5 microlitre, Day 1
  % Mortality Day 1: 0.0%
[1]; 5 microlitre, Day 2
  % Mortality Day 2: 0.0%
[1]; 5 microlitre, Day 3
  % Mortality Day 3: 0.0%
[1]; 5 microlitre, Day 4
  % Mortality Day 4: 0.0%

## CC(=O)C(C)=O [2,3 Butanedione, 2,3-butanedione]
[1]; in vivo
  % Mortality Day 1: 0.0%
  % Mortality Day 2: 0.0%
  % Mortality Day 3: 0.0%
  % Mortality Day 4: 0.0%
  mortality grouping in title of Table 5: 1,4-cyclohexadiene, Toluene, 2,3 Butanedione, Ethanol: 0% mortality).

## CCC(C)CO (stereo not shown) [2-Methyl-1-butanol]
[1]; 5 microlitre, Day 1
  % Mortality Day 1: 80.0%
[1]; 5 microlitre, Day 2
  % Mortality Day 2: 80.0%
[1]; 5 microlitre, Day 3
  % Mortality Day 3: 80.0%
[1]; 5 microlitre, Day 4
  % Mortality Day 4: 80.0%

## CCCC(C)O (stereo not shown) [2-Pentanol]
[1]; 5 microlitre, Day 1
  % Mortality Day 1: 0.0%
[1]; 5 microlitre, Day 2
  % Mortality Day 2: 0.0%
[1]; 5 microlitre, Day 3
  % Mortality Day 3: 0.0%
[1]; 5 microlitre, Day 4
  % Mortality Day 4: 0.0%

## CC(C)CCO [3-Methyl-1-butanol]
[1]; in vivo
  % Mortality Day 1: 45.0%
  % Mortality Day 2: 45.0%
  % Mortality Day 3: 50.0%
  % Mortality Day 4: 50.0%

## CCC(O)CC [3-Pentanol]
[2]; in vivo
  mortality after a 1 day exposure, 20 μL: 100%
  mortality after a 1 day exposure, 50 μL: 100%
  mortality after a 1 day exposure, 100 μL: 100%
  mortality after a 1 day exposure, 150 μL: 100%
  mortality after a 1 day exposure, 200 μL: 100%
  mortality after one day: 100%
[3]
  Growth Scale: 2
  activity against P. syringae: did not exhibit any activity
[4]; compound alone, 10 uL
  % Inhibition (v control): 47.3%
[4]
  fungicidal activity against F. verticillioides: moderate fungicidal activity
[1]; 5 microlitre, Day 1
  % Mortality Day 1: 100.0%
[1]; 5 microlitre, Day 2
  % Mortality Day 2: 100.0%
[1]; 5 microlitre, Day 3
  % Mortality Day 3: 100.0%
[1]; 5 microlitre, Day 4
  % Mortality Day 4: 100.0%

## CC(=O)CCO [4-Hydroxy-2-butanone]
[1]; 5 microlitre, Day 1
  % Mortality Day 1: 4.0%
[1]; 5 microlitre, Day 2
  % Mortality Day 2: 4.0%
[1]; 5 microlitre, Day 3
  % Mortality Day 3: 4.0%
[1]; 5 microlitre, Day 4
  % Mortality Day 4: 4.0%

## CC1CC=CCC1 (stereo not shown) [4-Methylcyclohexene]
[1]; 5 microlitre, Day 1
  % Mortality Day 1: 4.0%
[1]; 5 microlitre, Day 2
  % Mortality Day 2: 13.7%
[1]; 5 microlitre, Day 3
  % Mortality Day 3: 17.7%
[1]; 5 microlitre, Day 4
  % Mortality Day 4: 17.7%

## CC=O [Acetaldehyde]
[2]; Volume 20 μL in 1 litre bottle, 1 day
  mortality after a 1 day exposure, 20 μL: 2.3%
[2]; Volume 50 μL in 1 litre bottle, 1 day
  mortality after a 1 day exposure, 50 μL: 28.3%
[2]; Volume 100 μL in 1 litre bottle, 1 day
  mortality after a 1 day exposure, 100 μL: 98.2%
[2]; Volume 150 μL in 1 litre bottle, 1 day
  mortality after a 1 day exposure, 150 μL: 100%
[2]; Volume 200 μL in 1 litre bottle, 1 day
  mortality after a 1 day exposure, 200 μL: 100%
[2]; volumes ranging from 100-200 microlitres
  mortality after a 1 day exposure: 98.2-100.0%
[3]
  activity against P. syringae: high bactericidal activity
[4]
  fungicidal activity against F. verticillioides: high fungicidal activity
  inhibition of growth of the pathogen: 100%
[1]; 5 microlitre, Day 1
  % Mortality Day 1: 36.0%
[1]; 5 microlitre, Day 2
  % Mortality Day 2: 36.0%
[1]; 5 microlitre, Day 3
  % Mortality Day 3: 36.0%
[1]; 5 microlitre, Day 4
  % Mortality Day 4: 36.0%

## CC(=O)C(C)O (stereo not shown) [Acetoin, acetoin]
[2]; in vivo
  mortality after a 1 day exposure: 100%
  mortality after a 1 day exposure, 20 μL: 3%
  mortality after a 1 day exposure, 50 μL: 100%
  mortality after a 1 day exposure, 100 μL: 100%
  mortality after a 1 day exposure, 150 μL: 100%
  mortality after a 1 day exposure, 200 μL: 100%
[3]
  Growth Scale: 2
  activity against P. syringae: did not exhibit any activity
[4]; compound alone, 10 uL
  % Inhibition (v control): 0%
[4]
  fungicidal activity against F. verticillioides: no activity
[1]; 5 microlitre, Day 1
  % Mortality Day 1: 100.0%
[1]; 5 microlitre, Day 2
  % Mortality Day 2: 100.0%
[1]; 5 microlitre, Day 3
  % Mortality Day 3: 100.0%
[1]; 5 microlitre, Day 4
  % Mortality Day 4: 100.0%

## O=Cc1ccccc1 [Benzaldehyde]
[1]; 5 microlitre, Day 1
  % Mortality Day 1: 0.0%
[1]; 5 microlitre, Day 2
  % Mortality Day 2: 0.0%
[1]; 5 microlitre, Day 3
  % Mortality Day 3: 0.0%
[1]; 5 microlitre, Day 4
  % Mortality Day 4: 0.0%

## CCCC=O [Butyraldehyde]
[1]; in vivo
  % Mortality Day 1: 31.5%
  % Mortality Day 2: 39.5%
  % Mortality Day 3: 39.5%
  % Mortality Day 4: 39.5%

## CCCC(=O)O [Butyric acid]
[1]; 5 microlitre, Day 1
  % Mortality Day 1: 0.0%
[1]; 5 microlitre, Day 2
  % Mortality Day 2: 0.0%
[1]; 5 microlitre, Day 3
  % Mortality Day 3: 6.9%
[1]; 5 microlitre, Day 4
  % Mortality Day 4: 6.9%

## CCO [Ethanol]
[1]; in vivo
  % Mortality Day 1: 0.0%
  % Mortality Day 2: 0.0%
  % Mortality Day 3: 0.0%
  % Mortality Day 4: 0.0%
  mortality grouping in title of Table 5: 1,4-cyclohexadiene, Toluene, 2,3 Butanedione, Ethanol: 0% mortality).

## CC(C)CC=O [Isovaleraldehyde]
[2]; in vivo
  mortality after a 1 day exposure: 100%
  mortality after a 1 day exposure, 20 μL: 3%
  mortality after a 1 day exposure, 50 μL: 100%
  mortality after a 1 day exposure, 100 μL: 100%
  mortality after a 1 day exposure, 150 μL: 100%
  mortality after a 1 day exposure, 200 μL: 100%
[3]
  Growth Scale: 0.25
  activity against P. syringae: high bactericidal activity
[4]; compound alone, 10 uL
  % Inhibition (v control): 100.0%
[4]; compound alone, 10 uL, plug on fresh PDA plate
  Activity (fungistatic or fungicidal): Fungicidal
[4]
  fungicidal activity against F. verticillioides: high fungicidal activity
  inhibition of growth of the pathogen: 100%
[1]; 5 microlitre, Day 1
  % Mortality Day 1: 100.0%
[1]; 5 microlitre, Day 2
  % Mortality Day 2: 100.0%
[1]; 5 microlitre, Day 3
  % Mortality Day 3: 100.0%
[1]; 5 microlitre, Day 4
  % Mortality Day 4: 100.0%

## C=C1CCCCC1 [Methylenecyclohexane]
[1]; 5 microlitre, Day 1
  % Mortality Day 1: 8.0%
[1]; 5 microlitre, Day 2
  % Mortality Day 2: 8.0%
[1]; 5 microlitre, Day 3
  % Mortality Day 3: 16.0%
[1]; 5 microlitre, Day 4
  % Mortality Day 4: 16.0%

## C1=CC2(C=C1)CC2 [Spiro[2.4]hepta-4,6-diene]
[1]; 5 microlitre, Day 1
  % Mortality Day 1: 87.1%
[1]; 5 microlitre, Day 2
  % Mortality Day 2: 100.0%
[1]; 5 microlitre, Day 3
  % Mortality Day 3: 100.0%
[1]; 5 microlitre, Day 4
  % Mortality Day 4: 100.0%
